Test results published in US20250228882A1, “ORALLY-BIOAVAILABLE NUCLEOSIDE ANALOGS” (Venatorx Pharmaceuticals, Inc., priority 2022, published 2025).

Assay: Bidirectional Caco-2 permeability assay
Format: in vitro ADME
Conditions: human, Caco-2
Procedure: The bidirectional permeability of compounds across the Caco-2 cell monolayer was assessed. The Caco-2 model is a widely used in vitro model for small intestinal absorption and potential for efflux. Cell culture. Caco-2 cells were grown in DMEM supplemented with 10% fetal bovine serum (FBS), 1% Penicillin-Streptomycin and 1% MEMNEAA. The cells were incubated at 37° C., 5% CO2/95% air and saturated humidity. After reaching 80-90% confluency, the cells were gently detached with trypsin. Cells at passage 39 were seeded on the 24-well BD insert system at the density of 8×10^4 cells/cm^2 and cultured for 19 days with medium changed every 2-3 days. Measure the transepithelial electrical resistance (TEER) value of each well. The wells can be used only when their TEER values are greater than 600 Ohms/cm^2.
Transport assay. After removing the cell culture medium from the 24-well insert plate, the cells were rinsed with warm transport buffer. Appropriate dosing and receiving solutions were applied to the donor and receiver chambers to initiate the transport assay in apical to basolateral (A to B) or basolateral to apical (B to A) directions (500 and 1300 μL for apical and basolateral wells, respectively). Duplicate wells in each direction were used for the test compound and control compound. The plate was incubated in CO2 incubator at 37° C., with 5% CO2/95% air and saturated humidity without shaking. The sample after 10-minute incubation was used as the To sample, and the sample after 90-minute incubation was used as the T90 sample. To and T90 samples were collected from the donor and receiver side of each well at the designed timepoint, mixed with the transport buffer and acetonitrile/MeOH (1:1, v/v) and the internal standard for LC/MS/MS analysis. All samples were vortexed and centrifuged at 4000 rpm at 4° C. for 15 minutes, diluted with pure water and stored at 4° C. before bioanalysis by LC/MS/MS.
Sample analysis. The concentrations of test compounds and control compounds in Caco-2 cells were quantitatively determined by LC/MS/MS method after protein precipitation.
Calculations. The apparent permeability (Papp, cm/s), efflux ratio (ER) and recovery parameters were calculated for Caco-2 drug transport assay using the following equations: […]
where VR is the solution volume in the receiver chamber (0.4 mL on the apical side, 1.2 mL on the basolateral side); Area is the surface area for the insert membrane, i.e., 0.3 cm^2 for the area of the monolayer; Time is incubation time, expressed in seconds, i. e., 5400 s (90 min) for the current experiment; Co is the initial concentration of test compound or peak area ratio of control compounds in the donor chamber (M); VD is the volume in the donor chambers (0.4 mL on the apical side, 1.2 mL on the basolateral side); CD and CR are the final concentrations of test compounds or peak area ratio of control compounds in donor and receiver chambers, respectively.
Compounds with Papp<1.0 are classified as low permeability, Papp between 1-10 are classified as medium permeability, and Papp>10 are classified as high permeability. An efflux ratio (ER)>2 indicates the compounds are potential substrates for intestinal cell efflux transporters.

Compound | Papp A→B at 90 min [×10⁻⁶ cm/s] | Papp B→A at 90 min [×10⁻⁶ cm/s] | efflux ratio at 90 min
CCCCCC(=O)Nc1ncnn2c([C@]3(C#N)O[C@H](COC(=O)CC4CCCC4)[C@@H](OC(=O)[C@@H](N)C(C)(C)C)[C@H]3O)ccc12 [Compound 55, (2R,3S,4R,5R)-5-cyano-2-((2-cyclopentylacetoxy)methyl)-5-(4-hexanamidopyrrolo[2,1-f][1,2,4]triazin-7-yl)-4-hydroxytetrahydrofuran-3-yl (S)-2-amino-3,3-dimethylbutanoate] | 2.74 | 3.63 | 1.33
CCC(CC)C(=O)Nc1ncnn2c([C@]3(C#N)O[C@H](COC(=O)CC4CCCC4)[C@@H](OC(=O)[C@@H](N)C(C)(C)C)[C@H]3O)ccc12 [Compound 56, (2R,3S,4R,5R)-5-cyano-2-((2-cyclopentylacetoxy)methyl)-5-(4-(2-ethylbutanamido)pyrrolo[2,1-f][1,2,4]triazin-7-yl)-4-hydroxytetrahydrofuran-3-yl (S)-2-amino-3,3-dimethylbutanoate] | 7.61 | 7.57 | 0.99
COC(C)(C)C(=O)Nc1ncnn2c([C@]3(C#N)O[C@H](COC(=O)CC4CCCC4)[C@@H](OC(=O)[C@@H](N)C(C)(C)C)[C@H]3O)ccc12 [Compound 57, (2R,3S,4R,5R)-5-cyano-2-((2-cyclopentylacetoxy)methyl)-4-hydroxy-5-(4-(2-methoxy-2-methylpropanamido)pyrrolo[2,1-f][1,2,4]triazin-7-yl)tetrahydrofuran-3-yl (S)-2-amino-3,3-dimethylbutanoate] | 16.4 | 10.1 | 0.61
CCCCC(=O)Nc1ncnn2c([C@]3(C#N)O[C@H](COC(=O)CC4CCCCCC4)[C@@H](OC(=O)[C@@H](N)C(C)(C)C)[C@H]3O)ccc12 [Compound 61, (2R,3S,4R,5R)-5-cyano-2-((2-cycloheptylacetoxy)methyl)-4-hydroxy-5-(4-pentanamidopyrrolo[2,1-f][1,2,4]triazin-7-yl)tetrahydrofuran-3-yl (S)-2-amino-3,3-dimethylbutanoate] | 1.07 | 0.65 | 0.6
CCC(CC)C(=O)Nc1ncnn2c([C@]3(C#N)O[C@H](COC(=O)CC4CCCCCC4)[C@@H](OC(=O)[C@@H](N)C(C)(C)C)[C@H]3O)ccc12 [Compound 62, (2R,3S,4R,5R)-5-cyano-2-((2-cycloheptylacetoxy)methyl)-5-(4-(2-ethylbutanamido)pyrrolo[2,1-f][1,2,4]triazin-7-yl)-4-hydroxytetrahydrofuran-3-yl (S)-2-amino-3,3-dimethylbutanoate] | 1.4 | 0.89 | 0.64
COC(C)(C)C(=O)Nc1ncnn2c([C@]3(C#N)O[C@H](COC(=O)CC4CCCCCC4)[C@@H](OC(=O)[C@@H](N)C(C)(C)C)[C@H]3O)ccc12 [Compound 63, (2R,3S,4R,5R)-5-cyano-2-((2-cycloheptylacetoxy)methyl)-4-hydroxy-5-(4-(2-methoxy-2-methylpropanamido)pyrrolo[2,1-f][1,2,4]triazin-7-yl)tetrahydrofuran-3-yl (S)-2-amino-3,3-dimethylbutanoate] | 4.01 | 2.79 | 0.7
CCCCOC(=O)Nc1ncnn2c([C@]3(C#N)O[C@H](COC(=O)CC4CCCCCC4)[C@@H](OC(=O)[C@@H](N)C(C)(C)C)[C@H]3O)ccc12 [Compound 65, (2R,3S,4R,5R)-5-(4-((butoxycarbonyl)amino)pyrrolo[2,1-f][1,2,4]triazin-7-yl)-5-cyano-2-((2-cycloheptylacetoxy)methyl)-4-hydroxytetrahydrofuran-3-yl (S)-2-amino-3,3-dimethylbutanoate] | 0.79 | 0.5 | 0.62
CCOC(C)(C)C(=O)Nc1ncnn2c([C@]3(C#N)O[C@H](COC(=O)CC4CCCC4)[C@@H](OC(=O)[C@@H](N)C(C)(C)C)[C@H]3O)ccc12 [Compound 66, (2R,3S,4R,5R)-5-cyano-2-((2-cyclopentylacetoxy)methyl)-5-(4-(2-ethoxy-2-methylpropanamido)pyrrolo[2,1-f][1,2,4]triazin-7-yl)-4-hydroxytetrahydrofuran-3-yl (S)-2-amino-3,3-dimethylbutanoate] | 5.1 | 5.79 | 1.13
CCOC(C)(C)C(=O)Nc1ncnn2c([C@]3(C#N)O[C@H](COC(=O)CC4CCCCCC4)[C@@H](OC(=O)[C@@H](N)C(C)(C)C)[C@H]3O)ccc12 [Compound 67, (2R,3S,4R,5R)-5-cyano-2-((2-cycloheptylacetoxy)methyl)-5-(4-(2-ethoxy-2-methylpropanamido)pyrrolo[2,1-f][1,2,4]triazin-7-yl)-4-hydroxytetrahydrofuran-3-yl (S)-2-amino-3,3-dimethylbutanoate] | 4.78 | 2.54 | 0.53
COC(C)(C)C(=O)Nc1ncnn2c([C@]3(C#N)O[C@H](COC(=O)CC4CCCCC4)[C@@H](OC(=O)[C@H](N)C(C)(C)C)[C@H]3O)ccc12 [Compound 68, (2R,3S,4R,5R)-5-cyano-2-((2-cyclohexylacetoxy)methyl)-4-hydroxy-5-(4-(2-methoxy-2-methylpropanamido)pyrrolo[2,1-f][1,2,4]triazin-7-yl)tetrahydrofuran-3-yl (R)-2-amino-3,3-dimethylbutanoate] | 3.22 | 4.04 | 1.25
CCC(CC)C(=O)Nc1ncnn2c([C@]3(C#N)O[C@H](COC(=O)CC4CCCCC4)[C@@H](OC(=O)[C@H](N)C(C)(C)C)[C@H]3O)ccc12 [Compound 69, (2R,3S,4R,5R)-5-cyano-2-((2-cyclohexylacetoxy)methyl)-5-(4-(2-ethylbutanamido)pyrrolo[2,1-f][1,2,4]triazin-7-yl)-4-hydroxytetrahydrofuran-3-yl (R)-2-amino-3,3-dimethylbutanoate] | 3.19 | 4.38 | 1.37
COC(C)(C)C(=O)Nc1ncnn2c([C@]3(C#N)O[C@H](COC(=O)CC4CCCCCC4)[C@@H](OC(=O)[C@H](N)C(C)(C)C)[C@H]3O)ccc12 [Compound 70, (2R,3S,4R,5R)-5-cyano-2-((2-cycloheptylacetoxy)methyl)-4-hydroxy-5-(4-(2-methoxy-2-methylpropanamido)pyrrolo[2,1-f][1,2,4]triazin-7-yl)tetrahydrofuran-3-yl (R)-2-amino-3,3-dimethylbutanoate] | 2.13 | 2.2 | 1.03
CCCCOC(C)(C)C(=O)Nc1ncnn2c([C@]3(C#N)O[C@H](COC(=O)CC4CCCC4)[C@@H](OC(=O)[C@@H](N)C(C)(C)C)[C@H]3O)ccc12 [Compound 71, (2R,3S,4R,5R)-5-(4-(2-butoxy-2-methylpropanamido)pyrrolo[2,1-f][1,2,4]triazin-7-yl)-5-cyano-2-((2-cyclopentylacetoxy)methyl)-4-hydroxytetrahydrofuran-3-yl(S)-2-amino-3,3-dimethylbutanoate] | 0.67 | 8.18 | 12.1
CCCCOC(C)(C)C(=O)Nc1ncnn2c([C@]3(C#N)O[C@H](COC(=O)CC4CCCCCC4)[C@@H](OC(=O)[C@@H](N)C(C)(C)C)[C@H]3O)ccc12 [Compound 72, (2R,3S,4R,5R)-5-(4-(2-butoxy-2-methylpropanamido)pyrrolo[2,1-f][1,2,4]triazin-7-yl)-5-cyano-2-((2-cycloheptylacetoxy)methyl)-4-hydroxytetrahydrofuran-3-yl(S)-2-amino-3,3-dimethylbutanoate] | 0.09 | 7.6 | 88.8
CCCCOC(C)(C)C(=O)Nc1ncnn2c([C@]3(C#N)O[C@H](COC(=O)CC4CCCCC4)[C@@H](OC(=O)[C@H](N)C(C)(C)C)[C@H]3O)ccc12 [Compound 73, (2R,3S,4R,5R)-5-(4-(2-butoxy-2-methylpropanamido)pyrrolo[2,1-f][1,2,4]triazin-7-yl)-5-cyano-2-((2-cyclohexylacetoxy)methyl)-4-hydroxytetrahydrofuran-3-yl (R)-2-amino-3,3-dimethylbutanoate] | 0.24 | 0.53 | 2.23
